# Measurements taken from patent US9340490B2, “Diagnostic agent for tumor” (SBI PHARMACEUTICALS CO., LTD., priority 2004, dated 2016).
# Tests used:
# normal mice [1] = experiment: Blood protoporphyrin IX and uroporphyrin by fluorescence detection after oral administration, normal mice (Example 1); type: in vivo; conditions: 2 hours after oral 50 μl of 0.12 M
# [2] = tested on: MH 134 cell (ascitic liver cancer cell) tumor-bearing mice; conditions: female, C3H/He, mouse, in vivo, po
# Procedure: A mouse tumor-bearing cell (MH 134 cell: ascitic liver cancer cell) was intraperitoneally administered to mice (C3H/He line, 5-week-old, female) at a dose of 1×10^6 cells, and they were reared for 0 to 14 days. Ten days after the intraperitoneal administration of tumor-bearing cells, 50 μl of 0.12 M δ-aminolevulinic acid hydrochloride, δ-aminolevulinic acid methyl ester hydrochloride, δ-aminolevulinic acid hexyl ester hydrochloride or δ-aminolevulinic acid phosphate was orally administered to the mice to which the tumor-bearing cells had been intraperitoneally administered. From 10 to 20 μl of blood samples were collected from the orally administered mice 0, 0.25, 0.5, 2, 3, 4 or 6 hours thereafter. The thus collected blood was centrifuged at 2000×g for 5 minutes, 300 μl of ethyl acetate/acetic acid (2/1, v/v) was added to 5 μl of the supernatant (plasma), followed by mixing, 300 μl of 0.6 M NaOH solution was further added thereto, followed by mixing, and the NaOH layer was collected. To the remaining organic layer, 300 μl of 0.5 M aqueous hydrochloric acid solution was added, and the aqueous hydrochloric acid solution layer was collected. Fluorescence intensities of the NaOH layer and aqueous hydrochloric acid solution layer were measured (hydrochloric acid layer: excitation wavelength 400 nm, fluorescence wavelength 600 nm, NaOH layer: excitation wavelength 400 nm, fluorescence wavelength 619 nm), and respective concentrations were calculated from the standard solutions. In addition, δ-aminolevulinic acid hydrochloride, δ-aminolevulinic acid methyl ester hydrochloride, δ-aminolevulinic acid hexyl ester hydrochloride or δ-aminolevulinic acid phosphate was also orally administered (0.12 M, 50 μl) to normal mice as the control, and the same treatment was carried out.
# [3] = tested on: MH 134 cell tumor-bearing mice; experiment: Uroporphyrin I and III in urine by HPLC, tumor-bearing mice (Example 3); type: in vivo, mice (C3H/He line)
# Procedure: (§1) The thus collected samples were measured by HPLC (regarding the analyzing conditions, a fluorescence detector: excitation wavelength 406 nm, fluorescence wavelength 619 nm was used, a solution consisting of 12.5% acetonitrile, 1 M ammonium acetate and 0.27 mM EDTA, pH 5.15 (adjusted with acetic acid), was used as the eluting solution, ODS-AGtypeCAPCELLPAK, 4.6 mmφ×250 mm, particle diameter 5 μm (manufactured by Shiseido) was used as the column, and the measurement was carried out at a flow rate of 1.0 ml/min and at a temperature of 25° C.), and respective concentrations were calculated from the standard solutions.
# normal mice [4] = experiment: Uroporphyrin I and III in urine by HPLC, normal mice (Example 3); type: in vivo; conditions: 2 hours after oral 50 μl of 0.12 M
# Procedure: as §1
# [5] = tested on: MH 134 cell tumor-bearing mice; experiment: Uroporphyrin and coproporphyrin in feces by HPLC, tumor-bearing mice (Example 4); type: in vivo, mice (C3H/He line); conditions: 2 hours after oral 50 μl of 0.12 M
# Procedure: To 10 mg in wet weight portion of the thus collected feces, 100 μl of an ethyl acetate-acetic acid mixture liquid (4/1, v/v) was added, the mixture was homogenized and then filtered using a filter paper, 10 μl of the filtrate was measured by HPLC (regarding the analyzing conditions, a fluorescence detector: excitation wavelength 406 nm, fluorescence wavelength 619 nm was used, a solution A: 80% acetonitrile/7% acetic acid/50 mM ammonium acetate mixture liquid and a solution B: 10% acetonitrile/4% acetic acid/50 mM ammonium acetate mixture liquid were used as the eluting solutions and subjected to a linear gradient of A/B (20/80)-A/B (90/10) for 30 minutes and then to the holding with solution A for 20 minutes, ODS-AGtypeCAPCELLPAK, 4.6 mmφ×250 mm, particle diameter 5 μm (manufactured by Shiseido) was used as the column, and the measurement was carried out at a flow rate of 1.0 ml/min and at a temperature of 25° C.), and respective concentrations were calculated from the peak areas of standard solutions.
# [6] = tested on: MH 134 cell tumor-bearing mice; experiment: Uroporphyrin I and III in blood by HPLC, tumor-bearing mice (Example 2); type: in vivo, mice (C3H/He line); conditions: 2 hours after oral 50 μl of 0.12 M
# Procedure: as §1, with “The samples were” for “The thus collected samples were”, “fluorescence wavelength 610 nm was” for “fluorescence wavelength 619 nm was”, “from the peak areas of standard solutions.” for “from the standard solutions.”
# [7] = tested on: human liver cancer cell (HepG2 cell) tumor-bearing nude mice; experiment: Uroporphyrin and coproporphyrin in urine by HPLC, nude mice bearing human liver cancer cells (Example 5); type: in vivo, nude mice (BALB/cA-nu)
# Procedure: (§2) The thus collected urine was measured by HPLC (regarding the analyzing conditions, a fluorescence detector: excitation wavelength 406 nm, fluorescence wavelength 619 nm was used,
# (§3) A: 80% acetonitrile/7% acetic acid/50 mM ammonium acetate and
# (§4) B: 10% acetonitrile/4% acetic acid/50 mM ammonium acetate were used as the eluting solutions and subjected to a linear gradient of A/B (20/80)-A/B (90/10) for 13 minutes and then to elution with solution A for 10 minutes, ODS-AGtypeCAPCELLPAK, 4.6 mm×250 mm, particle diameter 5 μm (manufactured by Shiseido) was used as the column, and the measurement was carried out at a flow rate of 1.0 ml/min and at a temperature of 25° C.), and each concentration was calculated from the standard solutions. Further, the urine concentration was corrected by measuring the amount of creatinine (CRE) in urine, and calculating the amount of porphyrin per CRE.
# [8] = tested on: human cervical cancer cell (HeLa cell) tumor-bearing nude mice; experiment: Uroporphyrin and coproporphyrin in urine by HPLC, nude mice bearing human cervical cancer cells (Example 5); type: in vivo, nude mice (BALB/cA-nu)
# Procedure: as §2, §3, §4
# normal nude mice = experiment: Uroporphyrin and coproporphyrin in urine by HPLC, normal nude mice (Example 5); type: in vivo; conditions: 4 hours after oral 50 μl of 0.12 M, corrected per creatinine
# Procedure: as §2, §3, §4
# [9] = tumor-bearing mice, 2 hours after oral 50 μl of 0.12 M
# [10] = mice given human liver cancer cells, after administration
# [11] = tumor-bearing mice (human liver cancer cell), 4 hours after oral 50 μl of 0.12 M, corrected per creatinine
# [12] = mice given human cervical cancer cells, after administration
# [13] = tumor-bearing mice (human cervical cancer cell), 4 hours after oral 50 μl of 0.12 M, corrected per creatinine
structure (smiles),measurement,setting,value
CCCCCCOC(=O)CCC(=O)CN.Cl [δ-aminolevulinic acid hexyl ester hydrochloride],uroporphyrin in blood of normal mice,normal mice [1],hardly detected
same,time after administration at which concentrations of protoporphyrin IX and uroporphyrin became maximum,[2],2 h
Cl.NCC(=O)CCC(=O)O [δ-aminolevulinic acid hydrochloride],"amounts of uroporphyrin I and uroporphyrin III in urine, tumor-bearing mice in comparison with normal mice","[3]; after administration, urine 2 hours",about 13 times
same,Ratio of uroporphyrin I/uroporphyrin III in urine,[3]; [9],0.54
same,"Uroporphyrin I in urine, after administration",[3]; [9],11.95 ng/µL
same,"Uroporphyrin III in urine, after administration",[3]; [9],22.28 ng/µL
same,Ratio of uroporphyrin I/uroporphyrin III in urine,normal mice [4],0.94
same,"Uroporphyrin I in urine, after administration",normal mice [4],0.95 ng/µL
same,"Uroporphyrin III in urine, after administration",normal mice [4],1.01 ng/µL
same,"Coproporphyrin in feces, after administration",[5],0.21 pmol
same,"Uroporphyrin in feces, after administration",[5],1.75 pmol
same,uroporphyrin in blood of normal mice,normal mice [1],hardly detected
same,Ratio of uroporphyrin I/uroporphyrin III in blood,[6],0.53
same,"Uroporphyrin I in blood, after administration",[6],0.2 ng/µL
same,"Uroporphyrin III in blood, after administration",[6],0.38 ng/µL
same,time after administration at which concentrations of protoporphyrin IX and uroporphyrin became maximum,[2],2 h
COC(=O)CCC(=O)CN.Cl [δ-aminolevulinic acid methyl ester hydrochloride],uroporphyrin in blood of normal mice,normal mice [1],hardly detected
same,time after administration at which concentrations of protoporphyrin IX and uroporphyrin became maximum,[2],2 h
NCC(=O)CCC(=O)O.O=P(O)(O)O [δ-aminolevulinic acid phosphate],amount of coproporphyrin in urine relative to normal mice,[7]; [10],about 1.5 times
same,amount of uroporphyrin in urine relative to normal mice,[7]; [10],about 15 times
same,"Coproporphyrin in urine, after administration",[7]; [11],1.44 μmol/g-CRE
same,"Uroporphyrin in urine, after administration",[7]; [11],2.47 μmol/g-CRE
same,amount of coproporphyrin in urine relative to normal mice,[8]; [12],about 2.7 times
same,amount of uroporphyrin in urine relative to normal mice,[8]; [12],about 94 times
same,"Coproporphyrin in urine, after administration",[8]; [13],2.66 μmol/g-CRE
same,"Uroporphyrin in urine, after administration",[8]; [13],15.1 μmol/g-CRE
same,"Coproporphyrin in urine, after administration",normal nude mice,0.99 μmol/g-CRE
same,"Uroporphyrin in urine, after administration",normal nude mice,0.16 μmol/g-CRE
same,uroporphyrin in blood of normal mice,normal mice [1],hardly detected
same,time after administration at which concentrations of protoporphyrin IX and uroporphyrin became maximum,[2],2 h
